# From patent US20250320246A1, “3-AZASTEROID COMPOUNDS FOR THE TREATMENT OF DISEASES RELATED TO MITROCHONDRIAL FUNCTION” (NZP UK LIMITED, priority 2022, published 2025)
# How the values were obtained:
# Assay type in all cases: cell-based, human
# [1] = tested on: iNeurons from sPD patients; assay: Cellular ATP in iNeurons (dopaminergic neurons derived from sPD patients); details: for EC50: Homo sapiens, Neuron, sPD patient iNeurons, dosing every 3 days for last 12 days of differentiation; for ATP normalisation (% of controls): sPD patient iNeurons treated, untreated sPD patients 50
# Experimental: (§1) The fibroblasts lines and iNPC lines have previously been characterised and published in Carling et al, 2020.
# (§2) Briefly, iNPCs are plated in a 6-well plate and cultured for 2 days in DMEM/F-12 medium with Glutamax™ supplemented with 1% NEAA, 2% B27 (Gibco) and 2.5 μM of DAPT. On day 3, DAPT is removed and the medium is supplemented with 1 μM smoothened agonist (SAG) and FGF8 (75 ng/ml) for additional 10 days. Neurons are replated at this stage. Subsequently SAG and FGF8 are withdrawn and replaced with BDNF (30 ng/ml), GDNF (30 ng/ml), TGF-b3 ([…]) and dcAMP (2 mM, Sigma) for 15 days, as previously described Schwartzentruber et al, 2020 and Carling et al, 2020. Dopaminergic neurons were treated with compounds at concentrations of 0.1 nM, 1 nM, 3 nM, 10 nM, 30 nM and 100 nM dosing every 3 days for the last 12 days of differentiation.
# (§3) iNeurons were treated every 3 days for the last 12 days of the differentiation protocol. Cells are plated in 96 well plates; for live imaging cells are incubated for one hour at 37° C. with 80 nM tetramethlyrhodamine (TMRM), 1 μM LysoTracker® Green (Invitrogen) and Hoechst Stain solution (Sigma) at 1 μM before imaging using Opera Phenix™. Cellular ATP measurements are undertaken using ATPlite kit (Perkin Elmer) as per manufacturer's instructions. Mitochondrial reactive oxygen species generation was assessed using mitochondrial NpFR2 (probe; a kind gift from Dr Liz New, University of Sydney, Australia) at 20 μM and Hoechst stain solution at 1 μM for 30 mins at 37° C., then the dyes are removed and cells images using Opera Phenix™. Images generated from the live imaging experiments were analysed using Harmony® (Perkin Elmer software). We developed protocols in order to segment nucleus, cell boundary and processes, mitochondria, lysosomes, autophagosomes. We only analysed the z projection images collected from the z stacks.
# [2] = tested on: iNeurons from sPD patients; assay: Mitochondrial membrane potential (MMP) in iNeurons from sPD patients; details: for EC50: Homo sapiens, sPD patient iNeurons, dosing every 3 days for last 12 days of differentiation; for MMP normalisation (% of controls): sPD patient iNeurons treated, untreated sPD patients 52
# Experimental: as §1, §2, §3
# [3] = tested on: iNeurons from sPD patients; assay: Mitochondrial reactive oxygen species (ROS) in iNeurons from sPD patients; details: sPD patient iNeurons treated; untreated sPD patients 115
# Experimental: as §1, §2, §3
# [4] = tested on: sporadic PD patient fibroblasts; assay: Mitochondrial membrane potential (MMP, TMRM) in sporadic PD patient fibroblasts; details: Homo sapiens, Fibroblast, 24 h, 3 sporadic PD patient fibroblasts
# Experimental: (§4) Primary fibroblast cells were cultured continuously in Glucose based medium (high glucose (4500 mg/L) Dulbecco's Modified Eagle's medium (DMEM; Sigma-Aldrich) supplemented with 10% fetal bovine serum (Sigma-Aldrich), 100 IU/mL penicillin, 100 μg/mL streptomycin (Lonza), 1 mM sodium pyruvate (Sigma-Aldrich) and 50 μg/mL uridine (Sigma-Aldrich)). Unless otherwise stated, 24 hours prior to analysis, the Glucose based medium was exchanged for Galactose based medium (glucose-free DMEM (Gibco) with the same supplementation and in addition, 5 mM galactose (Sigma-Aldrich)). All cells were assessed between passage 6-10.
# Fibroblasts were cultured and plated into a greiner black 384 μClear® plate at a concentration of 1000 cells per well in 50 μl of media volume. The plates are left overnight in an incubator to allow the fibroblasts to adhere to the plate surface. The following morning the Glucose based medium is replaced with 25 μl of Galactose based medium. The plates were then dosed with the compounds using an ECHO® 550 liquid handling system. The wells were dosed to provide an 8-point concentration range of 0.06 nM-300 nM of compound. After dosing the wells are topped up with a further 25 μl of Galactose based medium and then left in an incubator for 24 hours. After 24 hours, the medium is removed from the wells and replaced with 25 μl phenol free Minimal essential medium supplemented with 10% FBS, 1% Penicillin-streptomycin, 1% sodium pyruvate, 0.1% uridine, 1% non-essential amino acids and 1% MEM vitamins with 80 nM TMRM (Sigma) and 10 μM Hoechst Stain (Sigma). The plate is returned to the incubator for another hour after which the stain medium is removed and replaced with 25 μl Phenol free MEM. The plate is then imaged using an IN Cell high content microscope (GE Healthcare) with fields of view per well in 2 channels, Cy3 excitation 542 nm, emission 604-64 nm; and the DAPI excitation 350 nm, emission 450-55 nm at 37° C. with CO2. After imaging the plate is disposed of and the images are Data mined using the INCell developer Toolkit (GE Healthcare).
# After the assays had been repeated in triplicate per line and compound the data was then inputted into Graph pad Prism 7 software suite where a dose response curve is generated using the default “[Agonist] vs response(three parameters)” equation. […]
# [5] = tested on: sporadic PD patient fibroblasts; assay: Cellular ATP levels in sporadic PD patient fibroblasts, full ATP assay; details: Homo sapiens, Fibroblast, 24 h, 3 sporadic PD patient fibroblasts
# Experimental: as §4
# The ATP protocol is generally as described in Mortiboys et al 2008. Briefly, fibroblasts were cultured as and plated into white 384 well plates at a concentration of 5000 cells per well in 50 μl of media volume. The plates are left overnight in an incubator to allow the fibroblasts to adhere to the plate surface. The following morning the Glucose based medium is replaced with 25 μl of Galactose based medium. The plates were then spiked with the compounds using a ECHO 550 liquid handling system. The wells were dosed to provide an 8-point concentration range of 0.06 nM-300 nM of compound. After dosing the wells are topped up with a further 25 μl of Galactose based medium and then left in an incubator for 24 hours. Following this incubation, the medium is removed from the plate and the wells are washed twice with sterile PBS. The wells are filled with 25 μl of Sterile PBS followed by 12.5 μl of Lysis solution from the ATPlite™ Luminescence ATP detection assay system (Perkin Elmer), including 16 cell free wells to use as blank controls. The plate is then placed on a rotary shaker for 5 mins at 700 rpm. Following the shaking 12.5 μl of ATP substrate solution (Perkin Elmer) is added to each well and a further 5 min of shaking. The plate is then placed in darkness for 10 minutes prior to reading. Using a PHERAStar® plate reader, luminescence intensity is recorded. Following the ATP assay the plates are immediately assayed for DNA content in a CyQUANT® assay.
# (§5) Immediately following The ATP assay DNA content is assessed with the CyQUANT® NF Cell Proliferation Assay Kit (ThermoFisher). CyQUANT® buffer is prepared immediately before the assay and is comprised of 1 μl CyQUANT® dye per ml×1 HBSS solution. 12.5 μl of CyQUANT® buffer is added to each well. Plate left in incubator for 1 hour then read on a PHERAStar© Plate reader with excitation at 497 nm and emission at 520 nm.
# ATP Quantification for each well is determined using the following formula: […]
# After the assays had been repeated in triplicate per line and compound the data was then inputted into Graph pad Prism 7 software suite where a dose response curve is generated using the default “[Agonist] vs response(three parameters)” equation.
# From this EC50 values, lowest response and maximal response were taken and used to calculate the Geometric mean between the 5 different lines assessed.
# [6] = tested on: iNeurons from sPD patients; assay: Activated caspase 3 levels (apoptosis) in iNeurons from sPD patients; details: sPD patient iNeurons treated; untreated sPD patients 162
# Experimental: as §1, §2
# (§6) Cells are plated into 96 well plates and fixed using 4% paraformaldehyde for 30 minutes. After PBS washes cells are permeabilised using 0.1% Triton™ X-100 for 10 minutes and blocked using 5% goat serum for 1 hour. Cells are incubated with primary antibodies βIII tubulin (Millipore); activated caspase 3 (Cell Signaling); at 4° C. for 16 hours. Cells are washed using PBS-Tween® and incubated with Alexa Fluor™-conjugated secondary antibodies 488 and 568 (Invitrogen) and Hoescht (Sigma) 1 μM prior to imaging. Imaging was performed using the Opera Phenix™ high content imaging system (Perkin Elmer).
# [7] = tested on: sporadic PD patient fibroblasts; assay: Cellular ATP levels in sporadic PD patient fibroblasts, Preliminary ATP assay; details: Homo sapiens, Fibroblast, 24 h, % of vehicle treated sPD fibroblasts, 3 sporadic PD patients
# Experimental: In some cases, a preliminary ATP protocol was used in which EC50 was not determined. The preliminary ATP protocol is generally as described in Mortiboys et al 2008. Briefly, fibroblasts were cultured and plated into white, clear-bottom 384 well plates at a concentration of 4000 cells per well in 50 μl of media volume. The plates are left overnight in an incubator to allow the fibroblasts to adhere to the plate surface. The following morning the Glucose based medium is replaced with 25 μl of Galactose based medium. The cells were then dosed with 100 nM and 1 μM concentrations of the compounds using a ECHO 550 liquid handling system. After dosing the wells are topped up with a further 25 μl of Galactose based medium and then left in an incubator for 24 hours. Following this incubation, the medium is removed from the plate and the wells are washed twice with sterile PBS. The wells are filled with 20 μl of Sterile PBS followed by 10 μl of Lysis solution from the ATPlite™ Luminescence ATP detection assay system (Perkin Elmer), including 14 cell free wells to use as blank controls. The plate is then placed on a rotary shaker for 10 mins at 700 rpm. Following the shaking 10 μl of ATP substrate solution (Perkin Elmer) is added to each well and a further 5 min of shaking. The plate is then incubated in the dark for 10 minutes prior to reading. Using a FLUOstar® Omega plate reader, luminescence intensity is recorded. Following the ATP assay the plates are immediately assayed for DNA content in a CyQUANT® assay.
# as §5, with “of 2” for “of 1”, “solution. 10” for “solution. 12.5”, “well. Cell plates were then incubated” for “well. Plate left in incubator”, “hour before being” for “hour then”, “a FLUOStar®” for “a PHERAStar©”
# The ATP Quantification for each well is determined as set out above.
# [8] = tested on: iNeurons from sPD patients; assay: Neuronal morphology (elongation) in iNeurons from sPD patients; details: sPD patient iNeurons treated; untreated sPD patients 48
# Experimental: as §1, §2, §6
# iNeurons were treated every 3 days for the last 12 days of the differentiation protocol. […] Mitochondrial reactive oxygen species generation was assessed using mitochondrial NpFR2 (probe; a kind gift from Dr Liz New, University of Sydney, Australia) at 20 μM and Hoechst stain solution at 1 μM for 30 mins at 37° C., then the dyes are removed and cells images using Opera Phenix™. Images generated from the live imaging experiments were analysed using Harmony® (Perkin Elmer software). […] We only analysed the z projection images collected from the z stacks.
EC50 [1],EC50 [2],SMILES,ATP normalisation (% of controls) [1],MMP normalisation (% of controls) [2],ROS normalisation (% of controls) [3],EC50 ([4]; 8-point range 0.06 nM-300 nM),"Emax ([4]; max response with highest dose of compound (300 nM), read-out: MMP % of vehicle, top %)","activity at 60 pM ([4]; max response with lowest dose of compound (0.06 nM), read-out: MMP % of vehicle, bottom %)",EC50 ([5]; 8-point range 0.06 nM-300 nM),"Emax at 0.3 µM ([5]; max response with highest dose of compound (300 nM), read-out: ATP % of vehicle, top %)","activity at 60 pM ([5]; max response with lowest dose of compound (0.06 nM), read-out: ATP % of vehicle, bottom %)",Activated caspase 3 levels [6],"activity at 0.1 µM ([7]; 100 nM, read-out: Average ATP Response 100 nM)","activity at 1 µM ([7]; 1 μM, read-out: Average ATP Response 1 μM)",Neuronal morphology (elongation; % controls) [8]
6.5 nM,10.3 nM,"C[C@H](CCC(=O)O)[C@H]1CC[C@H]2[C@@H]3[C@@H](O)C[C@@H]4CNCC[C@]4(C)[C@H]3CC[C@]12C.Cl [Compound 28a, 3-Aza-7β-hydroxy-5β-cholan-24-oic acid hydrochloride salt]",89.6 % of controls,71 % of controls,111 % of controls,4.58 nM,120%,96.8%,10.9 nM,137%,98.3%,,,,
5 nM,7.3 nM,"C[C@H](CCC(=O)O)[C@H]1CC[C@H]2[C@@H]3[C@@H](O)C[C@@H]4C[C@H](O)CC[C@]4(C)[C@H]3CC[C@]12C [UDCA, ursodeoxycholic acid, reference compound]",82 % of controls,73 % of controls,110 % of controls,,,,,,,143 % of level in iNeurons from Controls,105%,98.9%,64 % controls
